Measurements from US20220133782A1, “METHODS AND COMPOSITIONS FOR USING CINNAMALDEHYDE AND ZINC FOR WEIGHT MANAGEMENT” (SOCIÉTÉ DES PRODUITS NESTLÉ S.A., priority 2014, published 2022).

Tests used:
[1] = Nose temperature after ingestion in human subjects; assay type: in vivo; conditions: fifteen minutes following ingestion, FIG. 7
Procedure: The nose temperature of the subjects was analyzed over the fifteen minutes following ingestion of the various compounds.

[2] = Chin temperature after ingestion in human subjects (sympathetic autonomic activity); assay type: in vivo; conditions: for AUC difference in chin temperature relative to placebo: Z10, comparison vs Pl (placebo)
Procedure: The chin temperature of the subjects was measured over the eighty minutes following ingestion of the various compounds. […] The increased sympathetic activity identified by measuring the facial temperature (increased blood flow on the chin) might explain the increased energy expenditure measured by indirect calorimetry.

[3] = Comparative taste testing in human subjects; assay type: in vivo; conditions: 4.8 ppm capsaicin or 350 ppm cinnamaldehyde, FIG. 9
Procedure: Human subjects were administered a composition comprising 4.8 ppm capsaicin or 350 ppm cinnamaldehyde. […] 87.9% of the participants judged capsaicin intense to very intense, compared to only 20.5% for cinnamaldehyde. To achieve a similar effect on fat oxidation of capsaicin and cinnamaldehyde, the dose of capsaicin is about 1.5 times less than the maximum that can be used as a flavor (7 ppm according to Fenaroli's Handbook; Burdock, 2010), and the dose of cinnamaldehyde is about 17.5 times less than the maximum that can be used as a flavor (6191.0 ppm according to Fenaroli's Handbook; Burdock, 2010).

[4] = Energy expenditure after ingestion in human subjects; assay type: in vivo
Procedure: Human subjects were administered placebo, a cooling flavor, capsaicin, or cinnamaldehyde. The energy expenditure was measured over the eighty minutes following ingestion.

[5] = Postprandial fat oxidation after ingestion in human subjects; assay type: in vivo
Procedure: The postprandial fat oxidation was measured over the 90 minutes following ingestion of the various compounds.

[6] = biological target: T1, hTRPA1 expressed in CHO cells (Homo sapiens, UniProt O75762); assay: In vitro activity of hTRPA1 expressed in CHO cells (intracellular calcium, fluorescent dye); assay type: cell-based; parameters: in vitro activity of hTRPA1, positive control efficacy: dose or concentration left out as unconfirmed
T1 construct: expressed in transfected cells; host or cells: CHO cells
T1 sequence (O75762 whole entry): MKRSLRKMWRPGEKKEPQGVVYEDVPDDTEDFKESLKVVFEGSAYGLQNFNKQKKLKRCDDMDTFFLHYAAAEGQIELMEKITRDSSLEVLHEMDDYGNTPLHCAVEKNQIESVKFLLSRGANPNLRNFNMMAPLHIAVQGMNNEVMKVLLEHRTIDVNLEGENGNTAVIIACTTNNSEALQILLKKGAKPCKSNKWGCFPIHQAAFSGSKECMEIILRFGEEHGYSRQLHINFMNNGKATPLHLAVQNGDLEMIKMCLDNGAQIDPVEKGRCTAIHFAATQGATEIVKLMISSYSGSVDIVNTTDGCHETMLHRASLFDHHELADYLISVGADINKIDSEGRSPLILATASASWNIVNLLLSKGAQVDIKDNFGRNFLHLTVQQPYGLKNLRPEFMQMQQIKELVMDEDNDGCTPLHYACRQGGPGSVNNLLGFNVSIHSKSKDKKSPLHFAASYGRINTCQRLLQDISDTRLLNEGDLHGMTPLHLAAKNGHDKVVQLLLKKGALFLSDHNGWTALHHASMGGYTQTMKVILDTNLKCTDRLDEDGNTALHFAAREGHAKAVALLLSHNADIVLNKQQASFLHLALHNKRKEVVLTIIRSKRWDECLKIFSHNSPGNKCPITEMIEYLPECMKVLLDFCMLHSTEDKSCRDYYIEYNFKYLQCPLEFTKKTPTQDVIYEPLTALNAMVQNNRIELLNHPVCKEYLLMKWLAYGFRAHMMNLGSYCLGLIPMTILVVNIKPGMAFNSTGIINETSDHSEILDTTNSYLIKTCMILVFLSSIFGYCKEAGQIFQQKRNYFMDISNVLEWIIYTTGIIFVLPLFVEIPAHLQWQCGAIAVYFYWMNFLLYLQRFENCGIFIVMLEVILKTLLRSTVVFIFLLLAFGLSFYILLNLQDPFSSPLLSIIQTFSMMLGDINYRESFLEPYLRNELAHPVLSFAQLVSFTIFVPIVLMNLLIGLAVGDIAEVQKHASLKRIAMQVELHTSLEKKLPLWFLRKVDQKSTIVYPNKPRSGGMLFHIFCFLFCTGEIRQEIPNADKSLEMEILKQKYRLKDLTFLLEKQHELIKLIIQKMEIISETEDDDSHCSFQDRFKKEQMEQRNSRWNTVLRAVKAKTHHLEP

TRPA1 = TRPA1 (Homo sapiens, UniProt O75762); conditions: background statement; read-out: EC50 for activation of TRPA1; cited from earlier work
TRPA1, sequence (O75762 whole entry, species assumed): as the sequence (O75762 whole entry) above

TRPV1 = TRPV1 (Homo sapiens, UniProt Q8NER1); conditions: background statement; cited from earlier work
TRPV1, sequence (Q8NER1 whole entry, species assumed): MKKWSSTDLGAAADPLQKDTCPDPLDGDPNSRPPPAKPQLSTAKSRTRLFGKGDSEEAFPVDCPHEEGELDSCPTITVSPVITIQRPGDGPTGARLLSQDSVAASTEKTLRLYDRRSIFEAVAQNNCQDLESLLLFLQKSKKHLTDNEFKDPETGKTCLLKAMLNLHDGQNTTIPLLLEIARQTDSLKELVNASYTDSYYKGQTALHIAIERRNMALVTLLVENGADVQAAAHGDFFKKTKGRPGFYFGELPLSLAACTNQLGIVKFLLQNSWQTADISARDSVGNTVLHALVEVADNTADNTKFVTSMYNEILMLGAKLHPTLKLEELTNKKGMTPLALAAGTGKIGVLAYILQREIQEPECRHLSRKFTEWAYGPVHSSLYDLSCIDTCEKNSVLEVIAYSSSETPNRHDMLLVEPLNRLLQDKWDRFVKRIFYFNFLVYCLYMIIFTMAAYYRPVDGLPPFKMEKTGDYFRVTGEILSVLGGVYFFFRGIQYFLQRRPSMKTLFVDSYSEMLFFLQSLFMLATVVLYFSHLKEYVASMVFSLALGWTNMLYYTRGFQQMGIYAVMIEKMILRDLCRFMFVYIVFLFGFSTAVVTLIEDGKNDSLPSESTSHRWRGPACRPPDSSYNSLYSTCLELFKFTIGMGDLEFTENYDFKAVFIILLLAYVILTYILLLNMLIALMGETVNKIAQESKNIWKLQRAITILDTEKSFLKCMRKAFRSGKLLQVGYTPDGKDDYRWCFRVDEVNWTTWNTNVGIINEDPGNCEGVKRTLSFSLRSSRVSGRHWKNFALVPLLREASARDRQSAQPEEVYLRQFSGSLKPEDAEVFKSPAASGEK

TRPM8 = TRPM8 (Homo sapiens, UniProt Q7Z2W7); conditions: background statement; cited from earlier work
TRPM8, sequence (Q7Z2W7 whole entry, species assumed): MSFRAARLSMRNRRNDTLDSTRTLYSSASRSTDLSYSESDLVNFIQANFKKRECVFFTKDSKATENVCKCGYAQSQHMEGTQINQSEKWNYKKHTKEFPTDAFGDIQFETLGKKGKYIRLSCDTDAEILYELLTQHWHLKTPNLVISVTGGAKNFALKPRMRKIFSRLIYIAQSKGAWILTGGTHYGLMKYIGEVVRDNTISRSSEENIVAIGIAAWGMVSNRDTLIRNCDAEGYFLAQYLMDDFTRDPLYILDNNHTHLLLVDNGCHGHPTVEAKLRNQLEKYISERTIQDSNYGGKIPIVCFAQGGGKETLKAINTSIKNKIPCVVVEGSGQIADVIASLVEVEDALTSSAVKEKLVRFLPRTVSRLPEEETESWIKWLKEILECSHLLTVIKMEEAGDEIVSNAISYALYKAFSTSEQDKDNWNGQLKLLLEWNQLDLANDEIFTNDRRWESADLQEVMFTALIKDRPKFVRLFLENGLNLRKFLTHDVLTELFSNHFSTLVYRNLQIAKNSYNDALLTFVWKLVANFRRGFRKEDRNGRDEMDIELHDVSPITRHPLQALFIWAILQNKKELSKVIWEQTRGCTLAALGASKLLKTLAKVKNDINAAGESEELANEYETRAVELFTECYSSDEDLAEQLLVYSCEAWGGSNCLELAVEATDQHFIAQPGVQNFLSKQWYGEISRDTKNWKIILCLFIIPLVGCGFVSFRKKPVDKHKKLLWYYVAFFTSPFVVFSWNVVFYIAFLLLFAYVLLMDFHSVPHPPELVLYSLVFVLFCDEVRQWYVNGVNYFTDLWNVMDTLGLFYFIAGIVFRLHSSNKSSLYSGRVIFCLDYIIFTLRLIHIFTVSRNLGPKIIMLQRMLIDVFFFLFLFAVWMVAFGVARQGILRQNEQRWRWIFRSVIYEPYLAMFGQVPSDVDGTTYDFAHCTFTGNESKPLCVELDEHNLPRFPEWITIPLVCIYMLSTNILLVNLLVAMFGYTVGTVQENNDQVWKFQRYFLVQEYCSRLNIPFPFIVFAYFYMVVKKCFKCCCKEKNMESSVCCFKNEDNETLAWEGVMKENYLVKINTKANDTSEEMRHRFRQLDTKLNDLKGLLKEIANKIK

[7] = flavoring level of cinnamaldehyde judged significantly less intense than capsaicin

Compound	nose temperature [1]	AUC difference in chin temperature relative to placebo ([2]; human subjects)	participants who judged the taste intense to very intense [3] [%]	impact on energy expenditure compared to capsaicin [4, 7]	energy expenditure compared to placebo ([4]; human subjects, over the eighty minutes following ingestion, FIGS. 3 and 4)	effect on fat oxidation compared to capsaicin [5, 7]	postprandial fat oxidation compared to placebo ([5]; human subjects, over the 90 minutes following ingestion, FIGS. 5 and 6)	impact on sympathetic nervous system activity compared to capsaicin [2, 7]	chin temperature relative to baseline ([2]; human subjects, over the eighty minutes following ingestion, FIG. 8)	in vitro activity of hTRPA1, positive control efficacy ([6]; according to a dose-response curve)	EC50 (TRPA1) [µM]	activation of TRPV1 (TRPV1)	activation of TRPM8 (TRPM8)	zinc concentration required for synergy with cinnamaldehyde on TRPA1 ([6]; in vitro) [µM]
COc1cc(CNC(=O)CCCC/C=C/C(C)C)ccc1O [capsaicin, reference compound]	increase nose temperatures	25.26	87.9	–	–	–	–	–	–	–	–	–	–	–
O=CC=Cc1ccccc1 [cinnamaldehyde]	increase nose temperatures	34.072	–	significantly higher impact	increased	equivalent effect	maintained at higher levels	significantly higher impact	increases chin temperature for a prolonged time	maximum efficacy	~10	not	not	–
[Zn] [zinc]	–	–	–	–	–	–	–	–	–	–	–	–	–	< 1
